# From ChEMBL document CHEMBL3045393, “Aryldiones incorporating a [1,4,5]oxadiazepane ring. Part I: Discovery of the novel cereal herbicide pinoxaden” (Bioorg Med Chem, 2009)
# How the values were obtained:
# [1] = test system: Hordeum vulgare; assay: Phytotoxicity against Hordeum vulgare (barley) at 500 g a.i./ha applied post-emergence measured after 15 days; assay type: organism-based; details: in vivo, other, 360 h
# [2] = test system: Setaria faberi; assay: Post-emergence herbicidal activity against Setaria faberi (Giant Foxtail) at 500 g a.i./ha measured after 15 days; assay type: functional
# [3] = test system: Lolium perenne; assay: Post-emergence herbicidal activity against Lolium perenne (perennial ryegrass) at 500 g a.i./ha measured after 15 days; assay type: functional
# [4] = test system: Avena fatua; assay: Post-emergence herbicidal activity against Avena fatua at 500 g a.i./ha measured after 15 days; assay type: functional
# [5] = test system: Alopecurus myosuroides; assay: Post-emergence herbicidal activity against Alopecurus myosuroides at 500 g a.i./ha measured after 15 days; assay type: functional
# [6] = test system: Triticum aestivum; assay: Phytotoxicity against Triticum aestivum (wheat) at 500 g a.i./ha applied post-emergence measured after 15 days; assay type: organism-based; details: in vivo, other, 360 h
# [7] = test system: Setaria faberi; assay: Post-emergence herbicidal activity against Setaria faberi (Giant Foxtail) at 2000 g a.i./ha after 21 days; assay type: functional
# [8] = test system: Lolium perenne; assay: Post-emergence herbicidal activity against Lolium perenne (perennial ryegrass) at 500 g a.i./ha after 21 days; assay type: functional
# [9] = test system: Lolium perenne; assay: Post-emergence herbicidal activity against Lolium perenne (perennial ryegrass) at 2000 g a.i./ha after 21 days; assay type: functional
# [10] = test system: Avena fatua; assay: Post-emergence herbicidal activity against Avena fatua at 500 g a.i./ha after 21 days; assay type: functional
# [11] = test system: Avena fatua; assay: Post-emergence herbicidal activity against Avena fatua at 2000 g a.i./ha after 21 days; assay type: functional
# [12] = test system: Setaria faberi; assay: Post-emergence herbicidal activity against Setaria faberi (Giant Foxtail) at 500 g a.i./ha after 21 days; assay type: functional
# [13] = test system: Lolium perenne; assay: Post-emergence herbicidal activity against Lolium perenne (perennial ryegrass) at 30 g a.i./ha measured after 21 days in presence of 1% Merge adjuvant; assay type: functional
# [14] = test system: Alopecurus myosuroides; assay: Post-emergence herbicidal activity against Alopecurus myosuroides at 30 g a.i./ha measured after 21 days in presence of 1% Merge adjuvant; assay type: functional
# [15] = test system: Avena fatua; assay: Post-emergence herbicidal activity against Avena fatua at 30 g a.i./ha measured after 21 days in presence of 1% Merge adjuvant; assay type: functional
# [16] = test system: Triticum aestivum; assay: Phytotoxicity against Triticum aestivum (wheat) at 30 g a.i./ha applied post-emergence measured after 21 days in presence of 1% Merge adjuvant; assay type: organism-based; details: in vivo, other, 504 h
# [17] = test system: Hordeum vulgare; assay: Phytotoxicity against Hordeum vulgare (barley) at 30 g a.i./ha applied post-emergence measured after 21 days in presence of 1% Merge adjuvant; assay type: organism-based; details: in vivo, other, 504 h
# [18] = test system: Setaria faberi; assay: Post-emergence herbicidal activity against Setaria faberi (Giant Foxtail) at 30 g a.i./ha measured after 21 days in presence of 1% Merge adjuvant; assay type: functional
# [19] = test system: Lolium perenne; assay: Post-emergence herbicidal activity against Lolium perenne (perennial ryegrass) at 125 g a.i./ha measured after 21 days in presence of 0.2% X-77 adjuvant; assay type: functional
# [20] = test system: Setaria faberi; assay: Post-emergence herbicidal activity against Setaria faberi (Giant Foxtail) at 125 g a.i./ha measured after 21 days in presence of 0.2% X-77 adjuvant; assay type: functional
# [21] = test system: Avena fatua; assay: Post-emergence herbicidal activity against Avena fatua at 125 g a.i./ha measured after 21 days in presence of 0.2% X-77 adjuvant; assay type: functional
# [22] = test system: Alopecurus myosuroides; assay: Post-emergence herbicidal activity against Alopecurus myosuroides at 125 g a.i./ha measured after 21 days in presence of 0.2% X-77 adjuvant; assay type: functional
# [23] = test system: Triticum aestivum; assay: Phytotoxicity against Triticum aestivum (wheat) at 125 g a.i./ha applied post-emergence measured after 21 days in presence of 0.2% X-77 adjuvant; assay type: organism-based; details: in vivo, other, 504 h
# [24] = test system: Hordeum vulgare; assay: Phytotoxicity against Hordeum vulgare (barley) at 125 g a.i./ha applied post-emergence measured after 21 days in presence of 0.2% X-77 adjuvant; assay type: organism-based; details: in vivo, other, 504 h
# [25] = test system: Setaria faberi; assay: Post-emergence herbicidal activity against Setaria faberi (Giant Foxtail) at 250 g a.i./ha measured after 21 days in presence of 1% Merge adjuvant; assay type: functional
# [26] = test system: Lolium perenne; assay: Post-emergence herbicidal activity against Lolium perenne (perennial ryegrass) at 250 g a.i./ha measured after 21 days in presence of 1% Merge adjuvant; assay type: functional
# [27] = test system: Alopecurus myosuroides; assay: Post-emergence herbicidal activity against Alopecurus myosuroides at 250 g a.i./ha measured after 21 days in presence of 1% Merge adjuvant; assay type: functional
# [28] = test system: Triticum aestivum; assay: Phytotoxicity against Triticum aestivum (wheat) at 250 g a.i./ha applied post-emergence measured after 21 days in presence of 1% Merge adjuvant; assay type: organism-based; details: in vivo, other, 504 h
# [29] = test system: Hordeum vulgare; assay: Phytotoxicity against Hordeum vulgare (barley) at 250 g a.i./ha applied post-emergence measured after 21 days in presence of 1% Merge adjuvant; assay type: organism-based; details: in vivo, other, 504 h
# [30] = test system: Avena fatua; assay: Post-emergence herbicidal activity against Avena fatua at 250 g a.i./ha measured after 21 days in presence of 1% Merge adjuvant; assay type: functional
Structure (SMILES),Activity [1] [%],Activity [2] [%],Activity [3] [%],Activity [4] [%],Activity [5] [%],Activity [6] [%],Activity [7] [%],Activity [8] [%],Activity [9] [%],Activity [10] [%],Activity [11] [%],Activity [12] [%],further results
Cc1cc(C)c(C2C(=O)N3C[C@H]4CCCC[C@@H]4CN3C2=O)c(C)c1,50,80,60,50,60,50,,,,,,,
Cc1cc(C)c(C2C(=O)N3CCCN3C2=O)c(C)c1,40,40,80,20,40,0,,,,,,,
Cc1cc(C)c(C2C(=O)N3CCCCCN3C2=O)c(C)c1,40,60,50,90,50,20,90,60,90,50,90,90,
CCc1cc(C)cc(CC)c1-c1c(OCOC(=O)C(C)(C)C)n2n(c1=O)CCOCC2,,,,,,,,,,,,,Activity [13]: 100%; Activity [14]: 60%; Activity [15]: 100%; Activity [16]: 10%; Activity [17]: 0%; Activity [18]: 90%
Cc1cc(C)c(-c2c(OC(=O)C(C)(C)C)n3n(c2=O)CCSCC3)c(C)c1,,,,,,,100,40,80,50,90,60,
CCc1cc(C)cc(CC)c1C1C(=O)N2CCCCN2C1=O,,,,,,,,,,,,,Activity [19]: 90%; Activity [20]: 80%; Activity [21]: 100%; Activity [22]: 90%; Activity [23]: 80%; Activity [24]: 90%
Cc1cc(C)c(C2C(=O)N3CCN(C)CCN3C2=O)c(C)c1,,,,,,,90,10,60,0,10,40,
Cc1cc(C)c(C2C(=O)N3CC(C)C(C)CN3C2=O)c(C)c1 (stereo unspecified),60,60,80,80,80,20,,,,,,,
CCc1cc(C)cc(CC)c1-c1c(OC(=O)N(CC)CC)n2n(c1=O)CCOCC2,,,,,,,,,,,,,Activity [13]: 0%; Activity [14]: 0%; Activity [15]: 0%; Activity [16]: 0%; Activity [17]: 0%; Activity [18]: 0%
CCc1cc(C)cc(CC)c1-c1c(OC(=O)OC(C)C)n2n(c1=O)CCOCC2,,,,,,,,,,,,,Activity [13]: 100%; Activity [14]: 80%; Activity [15]: 90%; Activity [16]: 0%; Activity [17]: 0%; Activity [18]: 100%
CCc1cc(CC)c(C2C(=O)N3CCCCN3C2=O)c(CC)c1,,,,,,,,,,,,,Activity [19]: 60%; Activity [20]: 50%; Activity [21]: 100%; Activity [22]: 90%; Activity [23]: 40%; Activity [24]: 40%
Cc1cc(C)c(C2C(=O)N3CCOCN3C2=O)c(C)c1 (stereo unspecified),,,,,,,,,,,,,Activity [25]: 90%; Activity [26]: 90%; Activity [27]: 40%; Activity [28]: 20%; Activity [29]: 0%; Activity [30]: 90%
Cc1cc(C)c(C2C(=O)N3CCC(C)CN3C2=O)c(C)c1 (stereo unspecified),90,50,90,90,90,50,,,,,,,
Cc1cc(C)c(C2C(=O)N3CC[S+]([O-])CCN3C2=O)c(C)c1,,,,,,,90,40,80,40,80,60,
Cc1cc(C)c(-c2c(OC(=O)C(C)(C)C)n3n(c2=O)CCCCC3)c(C)c1,,,,,,,90,80,100,60,90,90,
